Values quoted from earlier work in US20140080923A1, “STEVIA BASED SWEETENING COMPOSITION” (STEVINOL LTD., priority 2011, published 2014).

Details: background statement

Compound | sweetness compared with sucrose
C=C1C[C@@]23CC[C@H]4[C@@](C)(CCC[C@@]4(C)C(=O)O[C@@H]4O[C@H](CO)[C@@H](O)[C@H](O)[C@H]4O)[C@@H]2CC[C@]1(O[C@@H]1O[C@H](CO)[C@@H](O)[C@H](O[C@@H]2O[C@H](CO)[C@@H](O)[C@H](O)[C@H]2O)[C@H]1O[C@@H]1O[C@H](CO)[C@@H](O)[C@H](O)[C@H]1O)C3 [rebaudioside A] | ~300 times sweeter than sucrose
C=C1C[C@@]23CC[C@H]4[C@@](C)(CCC[C@@]4(C)C(=O)O[C@@H]4O[C@H](CO)[C@@H](O)[C@H](O)[C@H]4O)[C@@H]2CC[C@]1(O[C@@H]1O[C@H](CO)[C@@H](O)[C@H](O)[C@H]1O[C@@H]1O[C@H](CO)[C@@H](O)[C@H](O)[C@H]1O)C3 [stevioside] | ~300 times sweeter than sucrose
